Several values for one entry are separate records, joined by “and”; a condition that tells them apart may be missing. Equal values may be shown once.
How the values were obtained:
VUP melanoma cell line [1] = experiment: Adhesion assay: [51Cr]-VUP cells to laminin; type: cell-based
Method: (§1) RGD peptides were plated at a maximum concentration of 200 μM and a minimum concentration of 2 nM. For each RGD peptide sequence, linear peptides (A), cyclic peptides (B), and 4-[^19F]-fluorobenzoyl cyclic peptides (C) were assayed. Each RGD peptide concentration was performed in quadruplicate and each experiment was repeated twice.
(§2) Plastic 96-well plates (Falcon 3912; Becton Dickinson) were coated with 50 μl substrate (10 μg/ml laminin or 5 μg/ml vitronectin). The plates were incubated at 37° C. in an 8% CO2 atmosphere for 1 hour. Unbound protein was flicked off and the plates were washed with phosphate buffered saline (PBS) and blocked with bovine serum albumin (0.1% w/v BSA)/PBS/0.1% sodium azide) for 1 hour. The plates were then washed with PBS, placed on a bed of ice and 25 μl of peptide was added to the wells.
(§3) Sodium [^51Cr] chromate was purchased from Amersham International, UK. The solution was made isotonic by the addition of 110 μl 10× Hanks buffered salt solution. 100 μl of this solution (3.7 MBq) was added to 5-10×10^6 cells in 500 μl of serum-containing growth medium. The suspension was incubated at 37° C. for 45 minutes with regular agitation to resuspend the cells. The cells were then washed and spun 3 times with serum-free E4 medium to remove any free [^51Cr]chromium. A trypan blue viability count was performed and the cells were diluted to the necessary volume in serum-free E4 medium (4×10^5 cells/ml).
(§4) 25 μl (about 10,000 cells) were added to each quadruplicate well and the plates incubated at 37° C. in an 8% CO2 atmosphere for 1 hour. Unbound cells were flicked off and the plates were washed twice with PBS/BSA containing 1 mM CaCl2 and 0.5 mM MgCl2. The plates were dabbed dry and cut into individual wells. The radioactivity associated with each well was determined in a gamma counter (1261 Multigamma; Wallac, Sweden). Quadruplicate 25 μl samples of labeled cells were counted as 100% input values. To determine non-specific binding, the ability of cells to bind BSA-coated wells was also assessed. […]
(§5) The results were calculated as follows: [formula] […]

A375M melanoma cell line [2] = experiment: Adhesion assay: [51Cr]-A375M cells to laminin; type: cell-based, human
Method: as §1, §2, §3
25 μl (about 10,000 cells) were added to each quadruplicate well and the plates incubated at 37° C. in an 8% CO2 atmosphere for 1 hour. Unbound cells were flicked off and the plates were washed twice with PBS/BSA containing 1 mM CaCl2 and 0.5 mM MgCl2. The plates were dabbed dry and cut into individual wells. The radioactivity associated with each well was determined in a gamma counter (1261 Multigamma; Wallac, Sweden). Quadruplicate 25 μl samples of labeled cells were counted as 100% input values. To determine non-specific binding, the ability of cells to bind BSA-coated wells was also assessed. Data for these wells are referred to as background.
The results were calculated as follows: [formula] [formula] NMR Spectroscopy of RGD Peptides
The A375M and VUP melanoma cell lines were used with vitronectin and laminin as substrates. Peptides were titrated in 10-fold dilutions from 200 μM to 2 nM. All data were normalized to the absence of peptide, which corresponded to 100% adhesion. All titrations were performed in quadruplicate and each experiment was repeated at least twice.

αvβ5 integrin = molecular target: T1, αvβ5 integrin (Homo sapiens, UniProt P06756+P18084); experiment: ELISA: biotinylated vitronectin binding to captured soluble αvβ5-mFc in the presence of RGD peptides
T1 construct: chimeras comprising the extracellular domain of αvβ3, αvβ5, α5β1, and αIIbβ3 linked to the Fc domain of either mouse IgG; purchased Celltech plc (supplied, no catalogue number); host or cells: unpurified hybridoma / tissue culture supernatant from secreting cells
Description: (§6) Four different soluble integrins were supplied by Celltech plc. Soluble forms of αvβ3, αvβ5, α5β1, and αIIbβ3 integrin were generated by constructing chimeras comprising the extracellular domain of αvβ3, αvβ5, α5β1, and αIIbβ3 linked to the Fc domain of either mouse IgG (αvβ3-mFc, αvβ5-mFc, and αIIbβ3-mFc) or human IgG (α5β1-hFc) as described by Stephens et al., Cell Adhes. Commun., 7:377-390 (2000) and Coe et al., J. Biol. Chem., 276:35854-35866 (2001). Since the four soluble integrin chimeras were supplied either as purified proteins (αvβ3-mFc and α5β1-hFc) or as unpurified hybridoma supernatants (αIIbβ3-mFc and αvβ5-mFc), it was necessary to use two types of ELISAs. […] In one type of ELISA (FIGS. 2A and 2B), the immobilized component is a 50 kDa fragment of fibronectin. In the second type of ELISA (FIGS. 2C and 2D), the immobilized component is a goat anti-mFc antibody that is used to capture chimeric proteins so that the RGD binding site of the integrin is maximally exposed. Each three-sided box in FIG. 2 represents a single well of a 96-well plate, and the components are listed in the sequence of their addition to the assay. The immobilized component at the bottom of the well is bound to the well by electrostatic interactions.
To analyze the affinity and selectively of RGD peptides for αIIbβ3 and αvβ5, 96-well ELISA plates were coated with anti-murine Fc antibody at 5 μg/ml in PBS, 100 μl per well and left overnight at 4° C. The plates were washed with PBS using a Denley Wellwash 4 Mk 2. Washing was repeated twice with a 400 μl wash per well. 200 μl/well of blocking buffer was then added for 1 hour followed by a repeat washing with PBS. 100 μl of tissue culture supernatant from cells secreting soluble αIIbβ3-mFc or αvβ5-mFc, diluted 1:2 in conjugate buffer, was added to each well. Plates were incubated with shaking for 1 hour followed by two washes with PBS. 100 μl of an RGD peptide (at concentrations of 200, 20, and 2 μM), followed by either 100 μl of biotinylated fibrinogen (at 1 μg/ml in conjugate buffer) or 100 μl of biotinylated vitronectin (at 2 μg/ml in conjugate buffer) were added to each well and incubated for 2 hours with shaking. After incubation, the plates were washed with PBS as described above. 100 μl of neutravidin-peroxidase was added to each well and the plates were incubated for 30 minutes with shaking, followed by two washes with PBS. 100 μl of TMB substrate was added to each well and the plates were shaken during color development. Plates were read using a plate spectrophotometer at 630 nm.
(§7) Two negative and two positive controls were used in both types of ELISAs. For example, the negative controls were wells that contained 50 μl of an active control peptide, integrin, and biotinylated ligand or 50 μl of the active control peptide and 50 μl of buffer. These negative control wells typically develop little to no color. […] These wells typically develop the maximum amount of color.
(§8) FIGS. 3-6 illustrate the percent binding of the vitronectin, fibronectin, or fibrinogen ligand to αvβ5, α5β1, αIIbβ3, or αvβ3 integrin in the presence of RGD peptides (i.e., linear (A), cyclic (B), or 4-[^19F]-fluorobenzoyl cyclic (C)) at different concentrations, with 100% maximum signal being the signal obtained in the absence of the peptide.

α5β1 integrin = molecular target: T2, α5β1 integrin (Homo sapiens, UniProt P05556+P08648); experiment: ELISA: soluble α5β1-hFc binding to immobilized 50 kDa fibronectin fragment in the presence of RGD peptides
T2 construct: chimeras comprising the extracellular domain of αvβ3, αvβ5, α5β1, and αIIbβ3 linked to the Fc domain of either mouse IgG; purchased Celltech plc (supplied, no catalogue number)
Description: as §6
To analyze the affinity and selectively of RGD peptides for αvβ3 and α5β1, 96-well ELISA plates were coated with 100 μl of a 5 μg/ml of the 50 kDa fragment of fibronectin in PBS per well and left overnight at 4° C. The plates were washed with PBS using a Denley Wellwash 4 Mk 2. Washing was repeated twice with a 400 μl wash per well. 200 μ/well of blocking buffer (i.e., to prevent non-specific binding of proteins) was then added for 1 hour followed by a repeat washing with PBS. RGD peptides were then added at a maximum concentration of 200 μM and a preliminary screen was performed at three concentrations, 200,20, and 2 μM. 100 μl of an RGD peptide was added to each well and each assay was performed in triplicate. Purified soluble αvβ3-mFc or purified α5β1-hFc was diluted to 2 μg/ml and 15 ng/ml, respectively, in conjugate buffer and 100 μl was added to each well. The plates were incubated for 2 hours with shaking using a Luckham R100 Rotatest at approximately 150 rpm. After incubation, the plates were washed with PBS as previously described and a labeled antibody was added. For the αvβ3 assay, a horseradish peroxidase (HRP)-labeled F(ab′)2 fragment of goat anti-mouse IgG Fc was diluted 1:2000 in conjugate buffer and 100 μl was added to each well. For the α5β1 assay, an HRP-labeled F(ab′)2 fragment of goat anti-human IgG Fc was diluted 1:2000 in conjugate buffer and 100 μl was added to each well. Plates were incubated for 30 minutes with shaking followed by 2 washes with PBS. 100 μl of TMB substrate was added to each well and plates were shaken during a 10 minute color development. Plates were read using a plate spectrophotometer at 630 nm.
as §7, §8

αIIbβ3 integrin = molecular target: T3, αIIbβ3 integrin (Homo sapiens, UniProt P05106+P08514); experiment: ELISA: biotinylated fibrinogen binding to captured soluble αIIbβ3-mFc in the presence of RGD peptides
T3 construct: chimeras comprising the extracellular domain of αvβ3, αvβ5, α5β1, and αIIbβ3 linked to the Fc domain of either mouse IgG; purchased Celltech plc (supplied, no catalogue number); host or cells: unpurified hybridoma / tissue culture supernatant from secreting cells
Description: as §6
The plates were washed with PBS using a Denley Wellwash 4 Mk 2. Washing was repeated twice with a 400 μl wash per well. 200 μl/well of blocking buffer was then added for 1 hour followed by a repeat washing with PBS. 100 μl of tissue culture supernatant from cells secreting soluble αIIbβ3-mFc or αvβ5-mFc, diluted 1:2 in conjugate buffer, was added to each well. […] After incubation, the plates were washed with PBS as described above. 100 μl of neutravidin-peroxidase was added to each well and the plates were incubated for 30 minutes with shaking, followed by two washes with PBS. 100 μl of TMB substrate was added to each well and the plates were shaken during color development. Plates were read using a plate spectrophotometer at 630 nm.
(§9) Two negative and two positive controls were used in both types of ELISAs.
as §8

αvβ3 integrin = molecular target: T4, αvβ3 integrin (Homo sapiens, UniProt P05106+P06756); experiment: ELISA: soluble αvβ3-mFc binding to immobilized 50 kDa fibronectin fragment in the presence of RGD peptides
T4 construct: chimeras comprising the extracellular domain of αvβ3, αvβ5, α5β1, and αIIbβ3 linked to the Fc domain of either mouse IgG; purchased Celltech plc (supplied, no catalogue number)
Description: as §6
The plates were washed with PBS using a Denley Wellwash 4 Mk 2. Washing was repeated twice with a 400 μl wash per well. […] Plates were read using a plate spectrophotometer at 630 nm.
as §9, §8

VUP melanoma cell line [3] = experiment: Adhesion assay: [51Cr]-VUP cells to vitronectin; type: cell-based; conditions: 20 μM peptide
Method: as §1, §2
(§10) Sodium [^51Cr] chromate was purchased from Amersham International, UK. […]
as §4, with “Unbound cells were flicked off and the plates were washed twice with PBS/BSA containing 1 mM CaCl2 and 0.5 mM MgCl2. The plates were dabbed dry and cut into individual wells.” left out
as §5

A375M melanoma cell line [4] = experiment: Adhesion assay: [51Cr]-A375M cells to vitronectin; type: cell-based, human; conditions: 20 μM peptide
Method: as §1, §2, §10
as §4, with “Unbound cells were flicked off and the plates were washed twice with PBS/BSA containing 1 mM CaCl2 and 0.5 mM MgCl2. The plates were dabbed dry and cut into individual wells.” left out
as §5

[5] = control peptide, concentration not given
[6] = preliminary screen 2, 20, 200 μM

T2 sequence (P08648 42-995 limits assumed): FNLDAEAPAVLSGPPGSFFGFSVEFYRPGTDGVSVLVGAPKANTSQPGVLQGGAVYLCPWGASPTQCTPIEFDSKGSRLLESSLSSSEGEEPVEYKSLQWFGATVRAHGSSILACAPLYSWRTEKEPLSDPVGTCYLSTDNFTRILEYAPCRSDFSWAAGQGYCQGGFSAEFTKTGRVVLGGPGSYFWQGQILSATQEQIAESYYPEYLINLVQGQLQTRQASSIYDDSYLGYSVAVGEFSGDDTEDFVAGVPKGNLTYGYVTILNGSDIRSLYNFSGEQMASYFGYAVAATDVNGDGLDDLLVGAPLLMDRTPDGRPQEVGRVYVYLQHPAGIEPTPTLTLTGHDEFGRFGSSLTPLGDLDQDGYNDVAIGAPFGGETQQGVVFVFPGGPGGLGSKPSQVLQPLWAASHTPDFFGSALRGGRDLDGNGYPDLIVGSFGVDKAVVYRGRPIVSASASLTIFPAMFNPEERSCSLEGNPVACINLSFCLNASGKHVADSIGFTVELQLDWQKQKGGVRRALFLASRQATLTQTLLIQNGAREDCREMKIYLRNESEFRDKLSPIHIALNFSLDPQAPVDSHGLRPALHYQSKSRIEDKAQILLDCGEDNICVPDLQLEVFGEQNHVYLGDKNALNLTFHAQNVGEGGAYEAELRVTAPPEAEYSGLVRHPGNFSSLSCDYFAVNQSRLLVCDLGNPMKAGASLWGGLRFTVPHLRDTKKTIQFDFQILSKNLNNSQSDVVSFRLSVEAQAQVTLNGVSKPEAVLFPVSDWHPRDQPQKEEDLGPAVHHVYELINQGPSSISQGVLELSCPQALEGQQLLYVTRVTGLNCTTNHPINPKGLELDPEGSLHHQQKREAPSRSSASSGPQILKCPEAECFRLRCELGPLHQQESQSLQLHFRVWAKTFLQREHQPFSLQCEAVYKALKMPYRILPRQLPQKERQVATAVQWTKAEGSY
T2 sequence (P05556 21-728 limits assumed): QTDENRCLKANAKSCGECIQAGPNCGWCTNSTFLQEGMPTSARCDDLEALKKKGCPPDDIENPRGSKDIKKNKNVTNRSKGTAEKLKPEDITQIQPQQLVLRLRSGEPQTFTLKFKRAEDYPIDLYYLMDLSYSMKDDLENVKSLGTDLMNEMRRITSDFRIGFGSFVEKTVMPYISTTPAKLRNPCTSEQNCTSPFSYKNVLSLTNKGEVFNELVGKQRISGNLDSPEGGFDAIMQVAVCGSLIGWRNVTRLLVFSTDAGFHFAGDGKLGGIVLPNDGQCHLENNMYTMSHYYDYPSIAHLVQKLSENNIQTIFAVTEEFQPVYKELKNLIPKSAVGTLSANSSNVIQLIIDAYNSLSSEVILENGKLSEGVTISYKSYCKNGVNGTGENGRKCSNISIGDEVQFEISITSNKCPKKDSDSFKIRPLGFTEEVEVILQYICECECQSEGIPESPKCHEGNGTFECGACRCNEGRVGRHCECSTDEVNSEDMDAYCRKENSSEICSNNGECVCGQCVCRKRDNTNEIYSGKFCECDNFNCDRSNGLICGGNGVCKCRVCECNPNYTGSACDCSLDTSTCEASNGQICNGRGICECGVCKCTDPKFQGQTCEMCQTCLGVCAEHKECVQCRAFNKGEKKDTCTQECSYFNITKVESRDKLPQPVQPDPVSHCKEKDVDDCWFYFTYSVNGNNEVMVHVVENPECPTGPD
T1 sequence (P06756 31-992 limits assumed): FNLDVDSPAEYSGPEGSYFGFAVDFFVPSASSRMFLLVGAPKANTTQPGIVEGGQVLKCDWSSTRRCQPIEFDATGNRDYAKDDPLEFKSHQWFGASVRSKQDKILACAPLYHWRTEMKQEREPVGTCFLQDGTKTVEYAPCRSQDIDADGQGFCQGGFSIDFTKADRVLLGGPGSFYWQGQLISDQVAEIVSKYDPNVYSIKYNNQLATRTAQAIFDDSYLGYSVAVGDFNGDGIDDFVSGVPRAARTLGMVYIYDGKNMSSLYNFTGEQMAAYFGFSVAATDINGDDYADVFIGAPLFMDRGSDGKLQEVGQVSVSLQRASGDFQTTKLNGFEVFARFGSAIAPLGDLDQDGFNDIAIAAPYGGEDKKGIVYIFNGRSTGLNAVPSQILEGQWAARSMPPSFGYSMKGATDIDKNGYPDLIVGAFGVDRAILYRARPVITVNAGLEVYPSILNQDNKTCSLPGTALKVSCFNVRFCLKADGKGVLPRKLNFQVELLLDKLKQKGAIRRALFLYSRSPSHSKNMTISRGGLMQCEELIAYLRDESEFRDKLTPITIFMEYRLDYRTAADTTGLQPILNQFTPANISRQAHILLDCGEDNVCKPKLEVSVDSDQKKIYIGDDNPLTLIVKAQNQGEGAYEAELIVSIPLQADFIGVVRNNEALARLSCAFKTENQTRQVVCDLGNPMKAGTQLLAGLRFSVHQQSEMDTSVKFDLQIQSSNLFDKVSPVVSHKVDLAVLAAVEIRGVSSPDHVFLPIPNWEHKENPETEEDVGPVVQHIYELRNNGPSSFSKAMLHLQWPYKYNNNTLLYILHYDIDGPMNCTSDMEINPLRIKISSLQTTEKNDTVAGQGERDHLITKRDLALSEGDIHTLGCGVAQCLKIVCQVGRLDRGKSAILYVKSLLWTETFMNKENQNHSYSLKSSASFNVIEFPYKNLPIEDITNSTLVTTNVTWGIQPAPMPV
T1 sequence (P18084 24-719 limits assumed): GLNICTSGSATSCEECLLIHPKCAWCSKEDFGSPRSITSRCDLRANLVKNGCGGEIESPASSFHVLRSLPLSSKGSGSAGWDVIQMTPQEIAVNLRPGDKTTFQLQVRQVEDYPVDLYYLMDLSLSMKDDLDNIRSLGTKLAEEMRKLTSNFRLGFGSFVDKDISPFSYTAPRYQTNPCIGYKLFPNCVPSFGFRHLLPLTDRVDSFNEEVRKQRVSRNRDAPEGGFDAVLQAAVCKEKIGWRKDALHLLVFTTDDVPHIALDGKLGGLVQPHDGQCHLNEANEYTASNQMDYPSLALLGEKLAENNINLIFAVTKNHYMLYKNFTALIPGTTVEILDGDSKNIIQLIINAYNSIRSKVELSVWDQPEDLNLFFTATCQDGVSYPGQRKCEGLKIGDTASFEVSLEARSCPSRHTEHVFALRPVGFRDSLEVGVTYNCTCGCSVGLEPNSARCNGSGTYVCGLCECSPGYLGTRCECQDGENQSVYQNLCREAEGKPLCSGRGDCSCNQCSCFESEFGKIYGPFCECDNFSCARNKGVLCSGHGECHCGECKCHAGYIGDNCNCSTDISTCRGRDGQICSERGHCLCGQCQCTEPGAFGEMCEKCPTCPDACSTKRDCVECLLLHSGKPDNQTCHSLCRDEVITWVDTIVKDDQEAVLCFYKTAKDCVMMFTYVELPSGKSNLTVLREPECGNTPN
T4 sequence (P06756 31-992 limits assumed): as the sequence (P06756 31-992 limits assumed) above
T4 sequence (P05106 27-718 limits assumed): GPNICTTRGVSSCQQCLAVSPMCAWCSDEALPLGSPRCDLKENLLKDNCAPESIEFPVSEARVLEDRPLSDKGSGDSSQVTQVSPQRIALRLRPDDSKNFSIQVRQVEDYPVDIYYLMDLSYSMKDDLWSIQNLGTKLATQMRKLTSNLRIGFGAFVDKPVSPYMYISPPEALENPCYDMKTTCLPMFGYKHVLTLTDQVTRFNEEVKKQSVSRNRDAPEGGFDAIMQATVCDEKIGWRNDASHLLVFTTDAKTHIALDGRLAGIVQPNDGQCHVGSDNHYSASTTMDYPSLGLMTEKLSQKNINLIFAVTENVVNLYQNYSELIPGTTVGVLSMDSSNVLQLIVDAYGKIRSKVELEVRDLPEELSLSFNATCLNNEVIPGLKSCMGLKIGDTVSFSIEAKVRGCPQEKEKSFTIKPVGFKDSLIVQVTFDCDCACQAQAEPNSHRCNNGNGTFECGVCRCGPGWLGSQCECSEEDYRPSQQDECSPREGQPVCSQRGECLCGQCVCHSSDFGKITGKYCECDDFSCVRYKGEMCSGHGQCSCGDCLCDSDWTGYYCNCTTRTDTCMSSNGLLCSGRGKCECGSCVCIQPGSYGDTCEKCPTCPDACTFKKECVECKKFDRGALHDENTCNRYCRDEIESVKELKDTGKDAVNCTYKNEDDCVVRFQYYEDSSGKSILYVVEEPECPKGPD

In the case of GRGDSP [reference compound], the “adhesion of [51Cr]-VUP cells to laminin, normalized to absence of peptide (100%)” value (VUP melanoma cell line [1]; [5]) is reported as 49.29%±2.74% and 43.05%±7.66%, the “adhesion of [51Cr]-A375M cells to laminin, normalized to absence of peptide (100%)” value (A375M melanoma cell line [2]; 200 μM peptide) is reported as 13.51%±1.25% and the “adhesion of [51Cr]-A375M cells to laminin, normalized to absence of peptide (100%)” value (A375M melanoma cell line [2]; [5]) is reported as 62.05%±1.88%.
In the case of “H-KPQVTRGDVFTEG-NH2 [A11, linear peptide, reference compound]”, the “effect on the binding of vitronectin to αvβ5” value (αvβ5 integrin; [6]) is reported as “no effect”, the “effect on the binding of fibronectin to α5β1” value (α5β1 integrin; [6]) is reported as “no effect” and the “effect on the binding of fibrinogen to αIIbβ3” value (αIIbβ3 integrin; 20 μM) is reported as “significant effect”. For the same substance, the “effect on fibronectin binding to αvβ3” value (αvβ3 integrin; 2 μM) was “little effect” and the “fibronectin binding to αvβ3, % of the maximum signal” value (αvβ3 integrin; 20 μM peptide) was 58.7%.
In the case of RGDY(OMe)K [A7], the “effect on αvβ5 binding to vitronectin” value (αvβ5 integrin; 2 μM and 20 μM) is reported as “little effect”, the “effect on α5β1 binding to fibronectin” value (α5β1 integrin; 2 μM and 20 μM) is reported as “little effect” and the “adhesion of [51Cr]-VUP cells to vitronectin, normalized to absence of peptide (100%)” value (VUP melanoma cell line [3]) is reported as 78.65%±3.98%. For the same substance, the “adhesion of [51Cr]-A375M cells to vitronectin, normalized to absence of peptide (100%)” value (A375M melanoma cell line [4]) was 106.99±1.66%, the “adhesion of [51Cr]-VUP cells to laminin, normalized to absence of peptide (100%)” value (VUP melanoma cell line [1]; highest concentration (200 μM)) was 64.17%±1.31% and the “adhesion of [51Cr]-A375M cells to laminin, normalized to absence of peptide (100%)” value (A375M melanoma cell line [2]; 200 μM peptide) was 75.08%±1.53%.
For RGDY(OMe)KE [C1], the “selectivity for αIIbβ3 integrin” value (αIIbβ3 integrin) was “high selectivity for αIIbβ3 integrin”, the “fibrinogen binding to αIIbβ3” value (αIIbβ3 integrin; 2 nM peptide) was 59% and the “effect on the binding of αIIbβ3 to fibrinogen” value (αIIbβ3 integrin; nanomolar concentrations) was “significant effect”.

Source: patent publication US20060029544A1, “Receptor-binding cyclic peptides and methods of use” (The Regents of the University of California Office of …, priority 2004, published 2006)
